US9131696B2, “Herbicidal compositions comprising fluroxypyr and flumetsulam” (Dow AgroSciences LLC, priority 2012, dated 2015)

What was measured:
Assay in all cases: Post-emergence field trial, visual weed control
Type in all cases: in vivo
[1] = system: AMARE = pigweed, redroot (Amaranthus retroflexus L.); conditions: foliar
Experimental: (§1) Multiple post-emergence field trials were conducted under field conditions in the United States (Mississippi, South Dakota, and Minnesota) and Mexico. Trial sites were located in commercially grown fields of corn (ZEAMX), spring wheat (TRZAS), and winter wheat (TRZAW), using standard herbicide small plot research methodology. Post-emergence trial plot size varied from 2 to 3 meter (m)×4 to 5 m (width×length) with 4 replicates per treatment. The crops were grown using normal cultural practices for fertilization, seeding, watering, and maintenance to ensure good growth of the crops and the weeds.
(§2) All treatments in the post-emergence field trials were applied using a backpack compressed carbon dioxide (CO2) or nitrogen (N2) sprayer with flat fan nozzles calibrated to apply 94 to 250 liters per hectare (L/ha) spray volume at approximately 30-40 pounds per square inch (psi) nozzle pressure. Commercially available products of fluoroxypyr-meptyl (STARANE® 200, 200 grams acid equivalent per liter (g ae/L) and fluoroxypyr-meptyl EC 240 g ae/L) and flumetsulam (75WDG) were mixed in water at appropriate formulated product rates to achieve the desired rates based on a unit area of application (hectare) to achieve the desired rates as shown. […] Treatments were rated at 7 to 45 days after application (DAA) as compared to the untreated control plants. Visual weed control was scored on a scale of 0 to 100 percent where “0” corresponds to no injury and “100” corresponds to complete kill.
(§3) The trial sites had naturally occurring populations of weeds. The weed spectrum included, but was not limited to, AMARE, AMASS, CHEAL, CHEMU, IPOLA, KCHSC, POLCO, RUMCR, and SASKR.
(§4) A t-test (alpha=0.05) between Colby predictions and observed combinations was used to test for significant differences indicating synergy or antagonism using replicate data.
(§5) The following equation was used to calculate the expected activity of mixtures containing two active ingredients, A and B: Expected=A+B−(A×B/100) • A=observed efficacy of active ingredient A at the same concentration as used in the mixture; • B=observed efficacy of active ingredient B at the same concentration as used in the mixture.

[2] = system: AMASS = pigweed species (Amaranthus sp.); conditions: foliar; for Flumetsulam % Visual Weed Control: flumetsulam 20 g ai/ha
Experimental: as §1, §2, §3, §4, §5

[3] = system: CHEAL = lambsquarters, common (Chenopodium album L.); conditions: 30 days after application, foliar
Experimental: as §1, §2, §3, §4, §5

[4] = system: CHEMU = goosefoot, nettleleaf (Chenopodium murale L.); conditions: 30 days after application, foliar
Experimental: as §1, §2, §3, §4, §5

[5] = system: IPOLA = morningglory, pitted (Ipomoea lacunosa L.); conditions: 28 days after application, foliar
Experimental: as §1, §2, §3, §4, §5

[6] = system: KCHSC = kochia (Kochia scoparia (L.) Schrad.); conditions: 28 days after application, foliar
Experimental: as §1, §2, §3, §4, §5

[7] = system: POLCO = buckwheat, wild (Polygonum convolvulus L.); conditions: 28 days after application, foliar
Experimental: as §1, §2, §3, §4, §5

[8] = system: RUMCR = dock, curly (Rumex crispus L.); conditions: 45 days after application, foliar
Experimental: as §1, §2, §3, §4, §5

[9] = system: SASKR = thistle, Russian (Salsola iberica Sennen & Pau); conditions: 29 days after application, foliar
Experimental: as §1, §2, §3, §4, §5

CCCCCCC(C)OC(=O)COc1nc(F)c(Cl)c(N)c1Cl (racemic) [Fluroxypyr-Meptyl, (RS)-1-methylheptyl 4-amino-3,5-dichloro-6-fluoro-2-pyridyloxyacetate]
Fluroxypyr-Meptyl % Visual Weed Control ([1]; 13 days after application, fluroxypyr-meptyl 110 g ae/ha): 8% | Fluroxypyr-Meptyl % Visual Weed Control ([1]; 28 days after application, fluroxypyr-meptyl 35 g ae/ha): 3% | Fluroxypyr-Meptyl % Visual Weed Control ([1]; 28 days after application, fluroxypyr-meptyl 110 g ae/ha): 13% | Fluroxypyr-Meptyl % Visual Weed Control ([2]; 7 days after application, fluroxypyr-meptyl 75 g ae/ha): 15% | Fluroxypyr-Meptyl % Visual Weed Control ([2]; 14 days after application, fluroxypyr-meptyl 50 g ae/ha): 21% | Fluroxypyr-Meptyl % Visual Weed Control ([2]; 14 days after application, fluroxypyr-meptyl 75 g ae/ha): 18% | Fluroxypyr-Meptyl % Visual Weed Control ([3]; fluroxypyr-meptyl 75 g ae/ha): 20% | Fluroxypyr-Meptyl % Visual Weed Control ([4]; fluroxypyr-meptyl 50 g ae/ha): 20% | Fluroxypyr-Meptyl % Visual Weed Control ([4]; fluroxypyr-meptyl 75 g ae/ha): 28% | Fluroxypyr-Meptyl % Visual Weed Control ([5]; fluroxypyr-meptyl 70 g ae/ha): 20% | Fluroxypyr-Meptyl % Visual Weed Control ([6]; fluroxypyr-meptyl 35 g ae/ha): 30% | Fluroxypyr-Meptyl % Visual Weed Control ([7]; fluroxypyr-meptyl 35 g ae/ha): 38% | Fluroxypyr-Meptyl % Visual Weed Control ([7]; fluroxypyr-meptyl 70 g ae/ha): 64% | Fluroxypyr-Meptyl % Visual Weed Control ([8]; fluroxypyr-meptyl 75 g ae/ha): 50% | Fluroxypyr-Meptyl % Visual Weed Control ([9]; fluroxypyr-meptyl 35 g ae/ha): 23%

Cc1ccn2nc(S(=O)(=O)Nc3c(F)cccc3F)nc2n1 [Flumetsulam, 2′,6′-difluoro-5-methyl[1,2,4]triazolo-[1,5-a]pyrimidine-2-sulfonanilide]
Flumetsulam % Visual Weed Control ([1]; 13 days after application, flumetsulam 18 g ai/ha): 81% | Flumetsulam % Visual Weed Control ([1]; 28 days after application, flumetsulam 35 g ai/ha): 45% | Flumetsulam % Visual Weed Control ([2]; 7 days after application): 79% | Flumetsulam % Visual Weed Control ([2]; 14 days after application): 81% | Flumetsulam % Visual Weed Control ([3]; flumetsulam 15 g ai/ha): 31% | Flumetsulam % Visual Weed Control ([3]; flumetsulam 30 g ai/ha): 35% | Flumetsulam % Visual Weed Control ([3]; flumetsulam 60 g ai/ha): 40% | Flumetsulam % Visual Weed Control ([4]; flumetsulam 15 g ai/ha): 57% | Flumetsulam % Visual Weed Control ([4]; flumetsulam 30 g ai/ha): 66% | Flumetsulam % Visual Weed Control ([4]; flumetsulam 60 g ai/ha): 69% | Flumetsulam % Visual Weed Control ([5]; flumetsulam 18 g ai/ha): 33% | Flumetsulam % Visual Weed Control ([6]; flumetsulam 35 g ai/ha): 58% | Flumetsulam % Visual Weed Control ([7]; flumetsulam 18 g ai/ha): 0% | Flumetsulam % Visual Weed Control ([7]; flumetsulam 35 g ai/ha): 0% | Flumetsulam % Visual Weed Control ([8]; flumetsulam 15 g ai/ha): 40% | Flumetsulam % Visual Weed Control ([8]; flumetsulam 30 g ai/ha): 52% | Flumetsulam % Visual Weed Control ([8]; flumetsulam 60 g ai/ha): 70% | Flumetsulam % Visual Weed Control ([9]; flumetsulam 9 g ai/ha): 67%
